Source: publication PMC9161086, “Water-Soluble Trichogin GA IV-Derived Peptaibols Protect Tomato Plants From Botrytis cinerea Infection With Limited Impact on Plant Defenses” (Frontiers in Plant Science, 2022)

Assay: Hydrophilicity evaluated from HPLC retention times
Type: physicochemical
Conditions: comparison to native Trichogin GA IV, C18 column Phenomenex Jupiter 5 μm, 300 Å, 250 × 4.5 mm, gradient 60%–100% B in 30 min, A H2O/CH3CN 9:1 0.05% TFA, B CH3CN/H2O 9:1 0.05% TFA

## 1-octanoyl-Aib-Gly-Leu-Aib-Gly-Gly-Leu-Aib-Gly-Ile-Lol [Trichogin GA IV, 11-residue lipopeptaibol naturally produced by Trichoderma longibrachiatum]
  Hydrophilicity: Native
